Reference: publication PMC12130866, “Identification of the lydiamycin biosynthetic gene cluster in a plant pathogen guides structural revision and identification of molecular target” (Proceedings of the National Academy of Sciences of the …, 2025)
In brackets after ≈: the same amount, converted by molar mass. Numbered stars: 1 amine (or outer) side, 2 acyl side, 3 side chain; on linkers, the order of the positions; unused ones are H or OH. Bridge positions count the residues as written; N and C are the ends. Square brackets hold non-standard residues; d marks the D form. Peptide text beside a SMILES is read from it. * marks the point of attachment. Piz(1,6-dehydro) = O=C(O)[C@@H]1CCC=NN1; X2 = O=C([C@@H]1CCCNN1[*:1])[*:2]; X1 = CCCCC[C@H](CC(=O)O)C(=O)*

How the values were obtained:
E. coli PDF [1] = target: T1, E. coli PDF (Escherichia coli, UniProt P0A6K3); assay: In vitro PDF inhibition assay, E. coli PDF, fML-pNA colorimetric coupled; type: biochemical; details: in vitro inhibition of E. coli PDF (10 nM); fML-pNA 20 µM; Aeromonas aminopeptidase 0.8 U/mL; lydiamycin A 0-50 µM; HEPES buffer pH 7.5, 1% DMSO; 405 nm, room temperature; sigmoidal fit of initial velocities; n = 3 independent experiments, SD
T1 sequence (P0A6K3 whole entry): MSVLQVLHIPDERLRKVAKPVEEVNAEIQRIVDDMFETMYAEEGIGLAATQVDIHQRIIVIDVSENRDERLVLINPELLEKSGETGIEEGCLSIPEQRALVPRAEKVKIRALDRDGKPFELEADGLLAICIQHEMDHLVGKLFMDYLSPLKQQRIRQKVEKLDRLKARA

mycobacteria = details: cited from earlier work
R. fascians D188-5 [2] = assay: In planta competition assay, WT or Δlyd against plasmid-free D188-5; details: N. benthamiana seedlings, 1:1 mixtures, 1 wk; WT vs Δlyd relative fitness P = 0.0068, two-tailed t test
R. fascians D188 WT = details: 72 h
R. fascians D188-5 [3] = system: R. fascians D188-5
E. coli PDF [4] = target: T1, E. coli PDF; assay: Michaelis-Menten kinetics of E. coli PDF with fML-pNA; type: biochemical; details: substrate fML-pNA, 405 nm, room temperature; 1% DMSO

| Molecule | IC50 (E. coli PDF [1]) [µM] | inhibition of mycobacteria (mycobacteria) | role of lydiamycin A production in leafy gall disease development (Nicotiana plants; WT versus Δlyd, plant or leafy gall mass at 4 wk) | phytotoxic activity (Nicotiana plants; concluded from plant/gall mass, seedling root length and excised leaf assays, R. fascians WT versus Δlyd) | fitness effect of lydiamycin production in competition with D188-5 (R. fascians D188-5 [2]) | MIC (R. fascians D188 WT) [µg/mL] | MIC (R. fascians D188-5 [3]; 72 h) [µg/mL] | sensitivity of R. fascians D188-5 relative to R. fascians WT (R. fascians D188-5 [3]; D188-5 more sensitive than WT, from the MICs) | Km (E. coli PDF [4]) [µM] | kcat (E. coli PDF [4]) [s⁻¹] |
| --- | --- | --- | --- | --- | --- | --- | --- | --- | --- | --- |
| CCCCC[C@H](CC(=O)O)C(=O)N1N=CCC[C@H]1C(=O)N[C@H]1COC(=O)[C@@H]2CCCNN2C(=O)[C@H](C)NC(=O)[C@@H](CC(C)C)NC1=O [lydiamycin A] (X1-[Piz(1,6-dehydro)]S[dL]A[X2]; ester 2-C) | 6 | previously shown to display antimycobacterial activity | not required for leafy gall disease development | does not have phytotoxic activity | significant fitness benefit | > 600 | 10 (≈ 15.1 µM) | at least 60 times |  |  |
| formyl-methionyl-leucyl-p-nitroaniline [fML-pNA] |  |  |  |  |  |  |  |  | 27 | 7 |
